Reference: patent publication US20230295197A1, “STAT5 and STAT6 Degraders and Uses Thereof” (REGENTS OF THE UNIVERSITY OF MICHICAN, priority 2022, published 2023)
Where two headings read alike, the source gives them in different places.

System: STAT5
Assay: Immunoblotting (Western blot) analysis of STAT5 degradation efficiency of degraders in treated cells
Assay type: cell-based
Description: Evaluation of the degradation efficiency of degraders may be accomplished by immunoblotting analysis. The representative general protocol is the following:
Cells are maintained in the appropriate culture medium with 10% FBS at 37° C. and an atmosphere of 5% CO2. Cell lines are used within three months of thawing fresh vials. Cells are lysed 1× Cell Lysis Buffer (Cell Signaling Technology, #9803), resolved by SDS-PAGE NuPAGE gel (Thermo Fisher Scientific), and transferred to a PVDF membrane (Millipore). Membranes are blocked using Odyssey TBS Blocker Buffer (LI-COR). IRDye 680RD and 800CW Dye-labeled secondary antibodies (LI-COR) are used. The washed membranes are scanned using Odyssey CLx imager (LI-COR). The intensity of Western blot signaling is quantitated using the Odyssey software. Primary antibodies used are: STAT5 Rabbit mAb (Cell Signaling Technology, #94205), STAT6 Rabbit mAb (Cell Signaling Technology, #5397) and GAPDH mouse monoclonal antibody (Santa Cruz Biotechnology, sc-47724).
To evaluate the degradation efficiency of degraders, immunoblotting analysis was performed. The general protocol is the following.
About 1 million cells for each data point were treated with compounds at indicated concentrations and durations. Untreated and treated cells in cell culture medium were transferred into tubes, followed by centrifugation at 3,000 rpm and 4° C. for 6 min Supernatants were removed from tubes and radioimmunoprecipitation assay (RIPA) lysis buffer supplemented with 1% protease inhibitor cocktail (Fisher Scientific cat. PI87786) and phosphatase inhibitor (Roche cat. 04906837001) were added to tubes containing the remaining cell pellets. The tubes were then left on ice for 30 min and placed in a −80° C. freezer. Subsequently they were thawed in 37° C. water, then centrifuged at 14,000 rpm for 15 min and the cell lysates transferred to new tubes. The concentration of total proteins in each tube was calculated using the Pierce BCA protein Assay kit (cat. 23225). Based on the calculated protein concentration, cell lysates containing approximately the same amount of proteins were transferred to new tubes, then distilled water and 4× Protein Sample Loading Buffer for Western Blots (LI-COR cat. 928-40004) supplemented with 20% of mercaptoethanol (Sigma Aldrich cat. M6250) were added on ice. The cell lysates were then reduced and denatured at 95° C. for 5 min. From the tubes containing cell lysates an equal amount of protein samples (20-40 μg) was loaded into precast 8%, 10%, 4%-12%, or 4%-20% Tris-glycine gels (Novex) filled with Tris-glycine SDS running buffer. After the proteins were resolved, they were transferred onto Immobile-FL PVDF Membrane (Millipore Sigma cat. IPFL00010), using Mini Trans-Blot Electrophoretic Transfer Cell (Bio-Rad 1703930). The membranes were blocked with Intercept Blocking Buffer (LI-COR cat. 927-70001) in LI-COR Western Blot boxes for 1 h at rt. The membranes were washed with 1× Tris-buffered saline-Tween-20 (TBST, 1× solution was made from 20×TBST solution, ThermoFisher Scientific cat. 28360) for 5 min 4 times. The membranes were incubated overnight at 4° C. in Intercept Blocking Buffer supplemented with primary antibodies (normally antibody:buffer 1:1000) and Tween-20. The membranes were washed with TBST for 5 min 4 times and were incubated with Intercept Blocking Buffer supplemented with IRDye 800CE Secondary Antibodies, IRDye 680RD Secondary Antibodies (LI-COR biosciences), Tween-20, and 10% SDS solution, for 1 h at rt. The membranes were then washed with TBST for 5 min 4 times and rinsed with deionized water before drying and scanning with Odyssey Dlx Amazing System (LI-COR). The immunoblots were finally quantified by the software.

[1] = MOLM-16 cells, numeric bound, read-out: DC50 S5 MOLM-16
[2] = SKNO1 cells, read-out: DC50 S5 SKNO1
[3] = KU-812 cells, read-out: DC50 S5 KU-812

Compound	DC50 [1] [nM]	DC50 [2] [nM]	DC50 [3] [nM]
CC(C)(C)[C@H](NC(=O)c1cc2cc(C(F)(F)P(=O)(O)O)ccc2s1)C(=O)N1CCC[C@H]1C(=O)N(CCC(=O)NCCCC#Cc1cccc2c1CN(C1CCC(=O)NC1=O)C2=O)c1ccc(Cl)c(F)c1 (stereo partly drawn) [Compound 636, ((2-(((2S)-1-((2S)-2-((4-chloro-3-fluorophenyl)(3-((5-(2-(2,6-dioxopiperidin-3-yl)-1-oxoisoindolin-4-yl)pent-4-yn-1-yl)amino)-3-oxopropyl)carbamoyl)pyrrolidin-1-yl)-3,3-dimethyl-1-oxobutan-2-yl)carbamoyl)benzo[b]thiophen-5-yl)difluoromethyl)phosphonic acid]	> 300	> 10000	
CCN1CC[C@H]2CC[C@@H](C(=O)N(CCC(=O)NCC#Cc3cccc4c3CN(C3CCC(=O)NC3=O)C4=O)c3ccc(Br)cc3)N2C(=O)[C@@H](NC(=O)c2cc3cc(C(F)(F)P(=O)(O)O)ccc3s2)C1 (stereo partly drawn) [Compound 625, ((2-(((5S,8S,10aR)-8-((4-bromophenyl)(3-((3-(2-(2,6-dioxopiperidin-3-yl)-1-oxoisoindolin-4-yl)prop-2-yn-1-yl)amino)-3-oxopropyl)carbamoyl)-3-ethyl-6-oxodecahydropyrrolo[1,2-a][1,5]diazocin-5-yl)carbamoyl)benzo[b]thiophen-5-yl)difluoromethyl)phosphonic acid]	> 300		
CC(C)(C)[C@H](NC(=O)c1cc2cc(C(F)(F)P(=O)(O)O)ccc2s1)C(=O)N1CCC[C@H]1C(=O)N(CCC(=O)NCCCC#Cc1cccc2c1CN(C1CCC(=O)NC1=O)C2=O)c1ccc(C(F)(F)F)cc1 (stereo partly drawn) [Compound 644, ((2-(((2S)-1-((2S)-2-((3-((5-(2-(2,6-dioxopiperidin-3-yl)-1-oxoisoindolin-4-yl)pent-4-yn-1-yl)amino)-3-oxopropyl)(4-(trifluoromethyl)phenyl)carbamoyl)pyrrolidin-1-yl)-3,3-dimethyl-1-oxobutan-2-yl)carbamoyl)benzo[b]thiophen-5-yl)difluoromethyl)phosphonic acid]	> 300	1000 to 10000	
CC(C)(C)[C@H](NC(=O)c1cc2cc(C(F)(F)P(=O)(O)O)ccc2s1)C(=O)N1C[C@@H](OCc2ccccc2)C[C@H]1C(=O)N(CCC(=O)NCCCC#Cc1cccc2c1CN(C1CCC(=O)NC1=O)C2=O)c1ccc(Br)cc1 (stereo partly drawn) [Compound 623, ((2-(((2S)-1-((2S,4S)-4-(benzyloxy)-2-((4-bromophenyl)(3-((5-(2-(2,6-dioxopiperidin-3-yl)-1-oxoisoindolin-4-yl)pent-4-yn-1-yl)amino)-3-oxopropyl)carbamoyl)pyrrolidin-1-yl)-3,3-dimethyl-1-oxobutan-2-yl)carbamoyl)benzo[b]thiophen-5-yl)difluoromethyl)phosphonic acid]	> 300		
CC(C)(C)[C@H](NC(=O)c1cc2cc(C(F)(F)P(=O)(O)O)ccc2s1)C(=O)N1CCC[C@H]1C(=O)N(CC(=O)NCCCCC#Cc1cccc2c1CN(C1CCC(=O)NC1=O)C2=O)c1ccc(F)cc1 (stereo partly drawn) [Compound 640, ((2-(((2S)-1-((2S)-2-((2-((6-(2-(2,6-dioxopiperidin-3-yl)-1-oxoisoindolin-4-yl)hex-5-yn-1-yl)amino)-2-oxoethyl)(4-fluorophenyl)carbamoyl)pyrrolidin-1-yl)-3,3-dimethyl-1-oxobutan-2-yl)carbamoyl)benzo[b]thiophen-5-yl)difluoromethyl)phosphonic acid]	> 300		
CC(C)(C)[C@H](NC(=O)c1cc2cc(C(F)(F)P(=O)(O)O)ccc2s1)C(=O)N1CCC[C@H]1C(=O)N(CCC(=O)NCCCCC#Cc1cccc2c1CN(C1CCC(=O)NC1=O)C2=O)c1ccc(Cl)c(F)c1 (stereo partly drawn) [Compound 639, ((2-(((2S)-1-((2S)-2-((4-chloro-3-fluorophenyl)(3-((6-(2-(2,6-dioxopiperidin-3-yl)-1-oxoisoindolin-4-yl)hex-5-yn-1-yl)amino)-3-oxopropyl)carbamoyl)pyrrolidin-1-yl)-3,3-dimethyl-1-oxobutan-2-yl)carbamoyl)benzo[b]thiophen-5-yl)difluoromethyl)phosphonic acid]	> 300	> 10000	

Continued, values first:

DC50 [1] [nM]	DC50 [2] [nM]	DC50 [3] [nM]	Compound
> 300	> 10000		CC(C)(C)[C@H](NC(=O)c1cc2cc(C(F)(F)P(=O)(O)O)ccc2s1)C(=O)N1CCC[C@H]1C(=O)N(CCC(=O)NCCCC#Cc1cccc2c1CN(C1CCC(=O)NC1=O)C2=O)c1cccc(C#N)c1 (stereo partly drawn) [Compound 643, ((2-(((2S)-1-((2S)-2-((3-cyanophenyl)(3-((5-(2-(2,6-dioxopiperidin-3-yl)-1-oxoisoindolin-4-yl)pent-4-yn-1-yl)amino)-3-oxopropyl)carbamoyl)pyrrolidin-1-yl)-3,3-dimethyl-1-oxobutan-2-yl)carbamoyl)benzo[b]thiophen-5-yl)difluoromethyl)phosphonic acid]
	100 to 1000	100 to 1000	CN(CCCC#Cc1cccc2c1CN(C1CCC(=O)NC1=O)C2=O)C(=O)CCN(C(=O)[C@@H]1CCCN1C(=O)[C@@H](NC(=O)c1cc2cc(C(F)(F)P(=O)(O)O)ccc2s1)C(C)(C)C)c1ccc2scnc2c1 (stereo partly drawn) [Compound 684, ((2-(((2S)-1-((2S)-2-(benzo[d]thiazol-5-yl(3-((5-(2-(2,6-dioxopiperidin-3-yl)-1-oxoisoindolin-4-yl)pent-4-yn-1-yl)(methyl)amino)-3-oxopropyl)carbamoyl)pyrrolidin-1-yl)-3,3-dimethyl-1-oxobutan-2-yl)carbamoyl)benzo[b]thiophen-5-yl)difluoromethyl)phosphonic acid]
	100 to 1000	100 to 1000	CN(CCCC#Cc1cccc2c1CN(C1CCC(=O)NC1=O)C2=O)C(=O)CCN(C(=O)[C@@H]1CCCN1C(=O)[C@H](CCc1ccccc1)NC(=O)c1cc2cc(C(F)(F)P(=O)(O)O)ccc2s1)c1ccc(-c2nccs2)cc1 (stereo partly drawn) [Compound 682, ((2-(((2S)-1-((2S)-2-((3-((5-(2-(2,6-dioxopiperidin-3-yl)-1-oxoisoindolin-4-yl)pent-4-yn-1-yl)(methyl)amino)-3-oxopropyl)(4-(thiazol-2-yl)phenyl)carbamoyl)pyrrolidin-1-yl)-1-oxo-4-phenylbutan-2-yl)carbamoyl)benzo[b]thiophen-5-yl)difluoromethyl)phosphonic acid]
> 300			CC(C)(C)[C@H](NC(=O)c1cc2cc(C(F)(F)P(=O)(O)O)ccc2s1)C(=O)N1C[C@H](OCc2ccc(C#Cc3cccc4c3CN(C3CCC(=O)NC3=O)C4=O)cc2)C[C@H]1C(=O)Nc1ncc(-c2ccccc2)s1 (stereo partly drawn) [Compound 632, ((2-(((2S)-1-((2S,4R)-4-((4-((2-(2,6-dioxopiperidin-3-yl)-1-oxoisoindolin-4-yl)ethynyl)benzyl)oxy)-2-((5-phenylthiazol-2-yl)carbamoyl)pyrrolidin-1-yl)-3,3-dimethyl-1-oxobutan-2-yl)carbamoyl)benzo[b]thiophen-5-yl)difluoromethyl)phosphonic acid]
> 300			CC(C)(C)[C@H](NC(=O)c1cc2cc(C(F)(F)P(=O)(O)O)ccc2s1)C(=O)N1C[C@H](OCc2ccccc2)C[C@H]1C(=O)N(CCC(=O)N1CCC(C#Cc2cccc3c2CN(C2CCC(=O)NC2=O)C3=O)CC1)c1ccc(Br)cc1 (stereo partly drawn) [Compound 621, ((2-(((2S)-1-((2S,4R)-4-(benzyloxy)-2-((4-bromophenyl)(3-(4-((2-(2,6-dioxopiperidin-3-yl)-1-oxoisoindolin-4-yl)ethynyl)piperidin-1-yl)-3-oxopropyl)carbamoyl)pyrrolidin-1-yl)-3,3-dimethyl-1-oxobutan-2-yl)carbamoyl)benzo[b]thiophen-5-yl)difluoromethyl)phosphonic acid]
